Activity calls are given as the source filed them. No rule for the calls is given here.
Tested on: CCRIS mutagenicity, Ames/micronucleus/aberration tests
Experiment: CCRIS mutagenicity studies
[1] = Test System: AMES SALMONELLA TYPHIMURIUM, Strain/Indicator: TA98, Metabolic Activation: NONE, Method: STANDARD PLATE

In the case of `BrC(Br)Br`, the mutagenic call (End Point: IN VITRO CHROMOSOMAL ABERRATIONS, Test System: CHO CELLS, Metabolic Activation: NONE) is reported as “inactive; negative”, the mutagenic call (End Point: IN VITRO CHROMOSOMAL ABERRATIONS, Test System: CHO CELLS, Metabolic Activation: RAT, LIVER, S-9, AROCLOR 1254) is reported as “inactive; negative” and the mutagenic call (End Point: IN VIVO MICRONUCLEUS, Test System: BONE MARROW POLYCHROMATIC ERYTHROCYTES, Species: MOUSE, Strain/Sex: DDY/MALE, Route: IP) is reported as “inactive; negative”. The mutagenic call (Test System: AMES SALMONELLA TYPHIMURIUM, Strain/Indicator: RSJ100, Metabolic Activation: NONE, Method: PREINCUBATION) was “active; positive”, the mutagenic call (Test System: AMES SALMONELLA TYPHIMURIUM, Strain/Indicator: RSJ100, Metabolic Activation: NONE, Method: STANDARD PLATE) was “active; positive” and the mutagenic call (Test System: AMES SALMONELLA TYPHIMURIUM, Strain/Indicator: RSJ100, Metabolic Activation: RAT LIVER S-9, Method: PREINCUBATION) was “inactive; negative”. The mutagenic call (Test System: AMES SALMONELLA TYPHIMURIUM, Strain/Indicator: TA97, Metabolic Activation: HAMSTER, LIVER, S-9 (10% OR 30%), AROCLOR 1254, Method: PREINCUBATION) was “inactive; negative”, the mutagenic call (Test System: AMES SALMONELLA TYPHIMURIUM, Strain/Indicator: TA97, Metabolic Activation: NONE, Method: PREINCUBATION) was “inactive; negative” and the mutagenic call (Test System: AMES SALMONELLA TYPHIMURIUM, Strain/Indicator: TA97, Metabolic Activation: RAT, LIVER, S-9 (10% OR 30%), AROCLOR 1254, Method: PREINCUBATION) was “inactive; negative”. The mutagenic call (Test System: AMES SALMONELLA TYPHIMURIUM, Strain/Indicator: TA98, Metabolic Activation: HAMSTER, LIVER, S-9 (5% OR 10%), AROCLOR 1254, Method: PREINCUBATION) was “inactive; negative”, the mutagenic call (Test System: AMES SALMONELLA TYPHIMURIUM, Strain/Indicator: TA98, Metabolic Activation: HAMSTER, LIVER, S-9, AROCLOR 1254, Method: PREINCUBATION) was “inactive; negative” and the mutagenic call [1] was “inactive; negative”. The mutagenic call (Test System: AMES SALMONELLA TYPHIMURIUM, Strain/Indicator: TA98, Metabolic Activation: RAT LIVER S-9, Method: PREINCUBATION) was “active; positive”, the mutagenic call (Test System: AMES SALMONELLA TYPHIMURIUM, Strain/Indicator: TA98, Metabolic Activation: RAT, LIVER, S-9 (10% OR 30%), AROCLOR 1254, Method: PREINCUBATION) was “inactive; negative” and the mutagenic call (Test System: AMES SALMONELLA TYPHIMURIUM, Strain/Indicator: TA98, Metabolic Activation: RAT, LIVER, S-9, AROCLOR 1254, Method: PREINCUBATION) was “inactive; negative”. The mutagenic call (Test System: AMES SALMONELLA TYPHIMURIUM, Strain/Indicator: TA98, Metabolic Activation: RAT, LIVER, S-9, AROCLOR 1254, Method: STANDARD PLATE) was “inactive; negative”, the mutagenic call (Test System: AMES SALMONELLA TYPHIMURIUM, Strain/Indicator: TA100, Metabolic Activation: HAMSTER, LIVER, S-9 (10% OR 30%), AROCLOR 1254, Method: PREINCUBATION) was “inactive; negative” and the mutagenic call (Test System: AMES SALMONELLA TYPHIMURIUM, Strain/Indicator: TA100, Metabolic Activation: HAMSTER, LIVER, S-9, AROCLOR 1254, Method: PREINCUBATION) was “inactive; negative”. The mutagenic call (Test System: AMES SALMONELLA TYPHIMURIUM, Strain/Indicator: TA100, Metabolic Activation: NONE, Method: DESICCATOR) was “active; positive”, the mutagenic call (Test System: AMES SALMONELLA TYPHIMURIUM, Strain/Indicator: TA100, Metabolic Activation: NONE, Method: FLUCTUATION TEST) was “active; positive” and the mutagenic call (Test System: AMES SALMONELLA TYPHIMURIUM, Strain/Indicator: TA100, Metabolic Activation: NONE, Method: STANDARD PLATE) was “inactive; negative”. The mutagenic call (Test System: AMES SALMONELLA TYPHIMURIUM, Strain/Indicator: TA100, Metabolic Activation: RAT LIVER S-9, Method: PREINCUBATION) was “inactive; negative”, the mutagenic call (Test System: AMES SALMONELLA TYPHIMURIUM, Strain/Indicator: TA100, Metabolic Activation: RAT, LIVER, S-9 (10% OR 30%), AROCLOR 1254, Method: PREINCUBATION) was “inactive; negative” and the mutagenic call (Test System: AMES SALMONELLA TYPHIMURIUM, Strain/Indicator: TA100, Metabolic Activation: RAT, LIVER, S-9, AROCLOR 1254, Method: FLUCTUATION TEST) was “inactive; negative”. The mutagenic call (Test System: AMES SALMONELLA TYPHIMURIUM, Strain/Indicator: TA100, Metabolic Activation: RAT, LIVER, S-9, AROCLOR 1254, Method: PREINCUBATION) was “inactive; negative”, the mutagenic call (Test System: AMES SALMONELLA TYPHIMURIUM, Strain/Indicator: TA100, Metabolic Activation: RAT, LIVER, S-9, AROCLOR 1254, Method: STANDARD PLATE) was “inactive; negative” and the mutagenic call (Test System: AMES SALMONELLA TYPHIMURIUM, Strain/Indicator: TA1535, Metabolic Activation: HAMSTER, LIVER, S-9 (10% OR 30%), AROCLOR 1254, Method: PREINCUBATION) was “inactive; negative”. The mutagenic call (Test System: AMES SALMONELLA TYPHIMURIUM, Strain/Indicator: TA1535, Metabolic Activation: HAMSTER, LIVER, S-9, AROCLOR 1254, Method: PREINCUBATION) was “inactive; negative”, the mutagenic call (Test System: AMES SALMONELLA TYPHIMURIUM, Strain/Indicator: TA1535, Metabolic Activation: NONE, Method: DESICCATOR) was “active; positive” and the mutagenic call (Test System: AMES SALMONELLA TYPHIMURIUM, Strain/Indicator: TA1535, Metabolic Activation: NONE, Method: PREINCUBATION) was “inactive; negative”. The mutagenic call (Test System: AMES SALMONELLA TYPHIMURIUM, Strain/Indicator: TA1535, Metabolic Activation: NONE, Method: STANDARD PLATE) was “inactive; negative”, the mutagenic call (Test System: AMES SALMONELLA TYPHIMURIUM, Strain/Indicator: TA1535, Metabolic Activation: RAT, LIVER, S-9 (10% OR 30%), AROCLOR 1254, Method: PREINCUBATION) was “inactive; negative” and the mutagenic call (Test System: AMES SALMONELLA TYPHIMURIUM, Strain/Indicator: TA1535, Metabolic Activation: RAT, LIVER, S-9, AROCLOR 1254, Method: PREINCUBATION) was “inactive; negative”. For the same compound, the mutagenic call (Test System: AMES SALMONELLA TYPHIMURIUM, Strain/Indicator: TA1535, Metabolic Activation: RAT, LIVER, S-9, AROCLOR 1254, Method: STANDARD PLATE) was “inactive; negative”, the mutagenic call (Test System: AMES SALMONELLA TYPHIMURIUM, Strain/Indicator: TA1537, Metabolic Activation: HAMSTER, LIVER, S-9 (10% OR 30%), AROCLOR 1254, Method: PREINCUBATION) was “inactive; negative” and the mutagenic call (Test System: AMES SALMONELLA TYPHIMURIUM, Strain/Indicator: TA1537, Metabolic Activation: HAMSTER, LIVER, S-9, AROCLOR 1254, Method: PREINCUBATION) was “inactive; negative”. The mutagenic call (Test System: AMES SALMONELLA TYPHIMURIUM, Strain/Indicator: TA1537, Metabolic Activation: NONE, Method: PREINCUBATION) was “inactive; negative”, the mutagenic call (Test System: AMES SALMONELLA TYPHIMURIUM, Strain/Indicator: TA1537, Metabolic Activation: NONE, Method: STANDARD PLATE) was “inactive; negative” and the mutagenic call (Test System: AMES SALMONELLA TYPHIMURIUM, Strain/Indicator: TA1537, Metabolic Activation: RAT, LIVER, S-9 (10% OR 30%), AROCLOR 1254, Method: PREINCUBATION) was “inactive; negative”. For the same compound, the mutagenic call (Test System: AMES SALMONELLA TYPHIMURIUM, Strain/Indicator: TA1537, Metabolic Activation: RAT, LIVER, S-9, AROCLOR 1254, Method: PREINCUBATION) was “inactive; negative”, the mutagenic call (Test System: AMES SALMONELLA TYPHIMURIUM, Strain/Indicator: TA1537, Metabolic Activation: RAT, LIVER, S-9, AROCLOR 1254, Method: STANDARD PLATE) was “inactive; negative” and the mutagenic call (Test System: MOUSE LYMPHOMA, Strain/Indicator: L5178Y (TK+/TK-), Metabolic Activation: NONE, Method: SUSPENSION/PLATE) was “active; positive”. The mutagenic call (Test System: MOUSE LYMPHOMA, Strain/Indicator: L5178Y (TK+/TK-), Metabolic Activation: RAT, LIVER, S-9, AROCLOR 1254, Method: SUSPENSION/PLATE) was “active; positive” and the mutagenic call (Test System: UDS RAT HEPATOCYTES, Strain/Indicator: THY INCORP, Metabolic Activation: NONE, Method: AUTORADIOGRAPHY) was “inactive; negative”.

For `O=[N+]([O-])c1cc2c3c(cccc3c1)-c1ccccc1-2`, the mutagenic call (Test System: AMES SALMONELLA TYPHIMURIUM, Strain/Indicator: TA98(1,8-DNP6), Metabolic Activation: NONE, Method: STANDARD PLATE) was “inactive; negative”, the mutagenic call (Test System: AMES SALMONELLA TYPHIMURIUM, Strain/Indicator: TA98(NR), Metabolic Activation: NONE, Method: STANDARD PLATE) was “inactive; negative” and the mutagenic call [1] was “active; positive”. For the same compound, the mutagenic call (Test System: AMES SALMONELLA TYPHIMURIUM, Strain/Indicator: TA7001, Metabolic Activation: NONE, Method: PREINCUBATION) was “inactive; negative”, the mutagenic call (Test System: AMES SALMONELLA TYPHIMURIUM, Strain/Indicator: TA7002, Metabolic Activation: NONE, Method: PREINCUBATION) was “active; positive” and the mutagenic call (Test System: AMES SALMONELLA TYPHIMURIUM, Strain/Indicator: TA7003, Metabolic Activation: NONE, Method: PREINCUBATION) was “inactive; negative”. The mutagenic call (Test System: AMES SALMONELLA TYPHIMURIUM, Strain/Indicator: TA7004, Metabolic Activation: NONE, Method: PREINCUBATION) was “active; positive”, the mutagenic call (Test System: AMES SALMONELLA TYPHIMURIUM, Strain/Indicator: TA7005, Metabolic Activation: NONE, Method: PREINCUBATION) was “active; positive” and the mutagenic call (Test System: AMES SALMONELLA TYPHIMURIUM, Strain/Indicator: TA7006, Metabolic Activation: NONE, Method: PREINCUBATION) was “active; positive”.

Reference: PubChem BioAssay AID1259407 (Chemical Carcinogenesis Research Information System (CCRIS), 2018)
